According to US7163918B2, “Iodothyronine compositions” (New River Pharmaceuticals Inc., priority 2000, dated 2007):
Where a SMILES comes first, the peptide text is derived from it. [ ]: non-standard residue; d: D form. Thyronine(3,5,3'-I3) = N[C@@H](Cc1cc(I)c(Oc2ccc(O)c(I)c2)c(I)c1)C(=O)O

Experiments:
[1] = Solid dose oral delivery, total T3 serum concentration AUC
[2] = target: amidase (EC 3.5.1.4; from Pseudomonas aeruginosa) (Pseudomonas aeruginosa, UniProt P11436); conditions: Table 1; 37° C., 24 hours
[3] = parameters: species or system Sprague-dawley rats; conditions: rat, in vivo
Method: (§1) Compounds were tested in Sprague-dawley rats (˜250 g). […] Rats were dosed immediately following 0 hour serum collection.

[4] = rat, in vivo
[5] = Solution dose oral delivery, T4 N-capped trimer vs. T4 sodium salt, total serum T4; parameters: species or system Sprague-dawley rats; conditions: rat, in vivo
Method: as §1

Chain of amidase (EC 3.5.1.4; from Pseudomonas aeruginosa) (P11436 whole entry): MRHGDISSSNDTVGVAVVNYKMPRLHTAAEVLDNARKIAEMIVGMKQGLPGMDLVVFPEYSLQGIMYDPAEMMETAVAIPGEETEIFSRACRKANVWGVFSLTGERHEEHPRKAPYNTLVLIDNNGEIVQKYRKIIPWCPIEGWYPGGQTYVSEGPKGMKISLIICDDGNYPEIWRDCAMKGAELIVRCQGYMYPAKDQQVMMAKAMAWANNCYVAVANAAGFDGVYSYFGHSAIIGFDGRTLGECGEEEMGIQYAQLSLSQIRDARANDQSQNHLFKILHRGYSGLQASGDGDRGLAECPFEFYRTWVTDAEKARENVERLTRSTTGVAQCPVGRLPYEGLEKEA

## N[C@@H](CCC(=O)O)C(=O)N[C@@H](CCC(=O)O)C(=O)N[C@@H](CCC(=O)O)C(=O)N[C@@H](CCC(=O)O)C(=O)N[C@@H](CCC(=O)O)C(=O)N[C@@H](CCC(=O)O)C(=O)N[C@@H](CCC(=O)O)C(=O)N[C@@H](CCC(=O)O)C(=O)N[C@@H](CCC(=O)O)C(=O)N[C@@H](CCC(=O)O)C(=O)N[C@@H](CCC(=O)O)C(=O)N[C@@H](CCC(=O)O)C(=O)N[C@@H](CCC(=O)O)C(=O)N[C@@H](CCC(=O)O)C(=O)N[C@@H](CCC(=O)O)C(=O)N[C@@H](Cc1cc(I)c(Oc2ccc(O)c(I)c2)c(I)c1)C(=O)N[C@@H](CCC(=O)O)C(=O)N[C@@H](CCC(=O)O)C(=O)N[C@@H](CCC(=O)O)C(=O)N[C@@H](CCC(=O)O)C(=O)O [20-Mer] (H-EEEEEEEEEEEEEEE[Thyronine(3,5,3'-I3)]EEEE-OH)
[1]; Study No. 12, rats
  total AUC divided by total AUC for T3 sodium: (69%)

## CCCCCCCC(=O)N[C@@H](Cc1cc(I)c(Oc2ccc(OC(=O)CCCCCCC)c(I)c2)c(I)c1)C(=O)O [C8T3(C8), N-Octanoyl-L-triiodothyronine(O-octanoyl)]
[2]
  enzymatic release of T3, Amidase: 0.0

## N[C@@H](CCC(=O)O)C(=O)N[C@@H](Cc1cc(I)c(Oc2ccc(O)c(I)c2)c(I)c1)C(=O)O [C-Capped Dimer]
[1]; Study No. 13, rats
  total AUC divided by total AUC for T3 sodium: (81%)

## N[C@@H](CCC(=O)O)C(=O)N[C@@H](CCC(=O)O)C(=O)N[C@@H](Cc1cc(I)c(Oc2ccc(O)c(I)c2)c(I)c1)C(=O)O [C-Capped Trimer]
[1]; Study No. 13, rats
  total AUC divided by total AUC for T3 sodium: (89%)

## N[C@@H](Cc1cc(I)c(Oc2ccc(O)c(I)c2)c(I)c1)C(=O)N[C@@H](CCC(=O)O)C(=O)O [N-Capped Dimer]
[1]; Study No. 11, rats
  total AUC divided by total AUC for T3 sodium: (104%)

## N[C@@H](Cc1cc(I)c(Oc2ccc(O)c(I)c2)c(I)c1)C(=O)N[C@@H](CCC(=O)O)C(=O)N[C@@H](CCC(=O)O)C(=O)O [T3 N-capped trimer, H-(T3)EE-OH]
[3]
  increase of Cmax as compared to T3 sodium salt: 65.2%
  increase of mean AUC relative to the T3 sodium salt AUC: 50.3%
  increase of Δmax relative to the Δmax of T3 sodium salt: 75.9%
[4]
  increase of Cmax over the corresponding T3 sodium salt control: 50.8%
  increase of mean AUC relative to the corresponding T3 sodium salt control: 72.1%
  increase of Δmax over the corresponding T3 sodium salt control: 85.6%
[1]; Study No. 11, rats
  total AUC divided by total AUC for T3 sodium: 123%
[1]; Study No. 11, rats, listed as N-Capped Trimer
  total AUC divided by total AUC for T3 sodium: (123%)
[1]; Study No. 17, rats
  total AUC divided by total AUC for T3 sodium: (102%)

## CCCCCCCCCCCCCCCC(=O)Oc1ccc(Oc2c(I)cc(CC(N)C(=O)O)cc2I)cc1I.O=C(O)C(F)(F)F (centres unmarked) [T3C16, Trioodothyronine Hexadeconoate—TFA]
[2]
  enzymatic release of T3, Amidase: 1.2

## N[C@@H](Cc1cc(I)c(Oc2cc(I)c(O)c(I)c2)c(I)c1)C(=O)N[C@@H](CCC(=O)O)C(=O)N[C@@H](CCC(=O)O)C(=O)O [T4 N-capped trimer]
[5]; Sprague-Dawley, po
  Tmax (time to reach maximal concentration): 10.2 h
[5]
  increase of Cmax as compared to the sodium salt: 48%
  increase of mean AUC relative to the T4 sodium salt AUC: 115%
  increase of Δmax (Δ at Cmax) relative to the Δmax of T4 sodium salt: 68%
[5]; po
  Cmax +/− SD: 13.0 ± 0.6 ng/dL
  Cmax, Percent of T4 sodium salt: 148%
  Delta @ Cmax (change in total T4 serum levels from 0 hour level): 6.7 ± 1.5 ng/dL
  Delta @ Cmax, Percent of T4 sodium salt: 168%
